Test results taken from US4758557A, “Cephalosporin derivatives and bactericides containing the same” (Meiji Seika Kaisha, Ltd., priority 1985, dated 1988).
In brackets after ≈: the same amount, converted by molar mass.

Assays:
Test in all cases: MIC in agar plate culture-dilution assay
Format in all cases: cell-based
[1] = tested on: Pseudomonas aeruginosa M-0148; details: M0148; Pseudomonas aeruginosa M-0148; agar plate culture-dilution; read-out: MIC
Description: (§1) The compounds of the formula (I) and salts thereof of the present invention are new, and have high and broad antibacterial activity capable of inhibiting the growth of pathogenic microorganisms of a broad range including gram-positive and gram-negative bacteria. In order to show the usability of the compounds of the formula (I), the antibacterial activity of some typical compounds of the formula (I) was actually measured, and the results are given in the following Table-1.
(§2) MIC in agar plate culture-dilution assay (Y/ml)

[2] = tested on: Staphylococcus aureus Smith (1); details: Staphylococcus aureus Smith (1); agar plate culture-dilution; read-out: MIC
Description: as §1, §2

[3] = tested on: Staphylococcus aureus 209P JC-1; details: Staphylococcus aureus 209P JC-1; agar plate culture-dilution; read-out: MIC
Description: as §1, §2

[4] = tested on: Bacillus subtilis ATCC 6633; details: ATCC6633; Bacillus subtilis ATCC 6633; agar plate culture-dilution; read-out: MIC
Description: as §1, §2

Proteus vulgaris GN-76 = details: GN76; Proteus vulgaris GN-76; agar plate culture-dilution; read-out: MIC
Description: as §1, §2

[5] = tested on: Pseudomonas aeruginosa E-2; details: E2; Pseudomonas aeruginosa E-2; agar plate culture-dilution; read-out: MIC
Description: as §1, §2

[6] = tested on: Escherichia coli NIHJ JC-2; details: NIHJJC2
Description: as §1, §2

[7] = tested on: Enterobacter cloacae GN-7471; details: GN7471; Enterobacter cloacae GN-7471; agar plate culture-dilution; read-out: MIC
Description: as §1, §2

Proteus rettgeri GN-624 = details: Providencia rettgeri, GN624; Proteus rettgeri GN-624; agar plate culture-dilution; read-out: MIC
Description: as §1, §2

[8] = tested on: Klebsiella pneumoniae GN-69; details: GN69; Klebsiella pneumoniae GN-69; agar plate culture-dilution; read-out: MIC
Description: as §1, §2

[9] = tested on: Pseudomonas aeruginosa IAM-1007; details: IAM1007; Pseudomonas aeruginosa IAM-1007; agar plate culture-dilution; read-out: MIC
Description: as §1, §2

[10] = tested on: Citrobacter freundii GN-346; details: GN346; Citrobacter freundii GN-346; agar plate culture-dilution; read-out: MIC
Description: as §1, §2

[11] = tested on: Pseudomonas maltophilia M-0627; details: Stenotrophomonas maltophilia, M0627; Pseudomonas maltophilia M-0627; agar plate culture-dilution; read-out: MIC
Description: as §1, §2

[12] = tested on: Serratia marcescens No. 1; details: Serratia marcescens No. 1; agar plate culture-dilution; read-out: MIC
Description: as §1, §2

| SMILES | MIC [1] | MIC [2] | MIC [3] | MIC [4] | MIC (Proteus vulgaris GN-76) | MIC [5] | MIC [6] | MIC [7] | MIC (Proteus rettgeri GN-624) | MIC [8] | MIC [9] | MIC [10] | MIC [11] | MIC [12] |
| --- | --- | --- | --- | --- | --- | --- | --- | --- | --- | --- | --- | --- | --- | --- |
| C[n+]1ccc(SCC2=C(C(=O)[O-])N3C(=O)[C@@H](NC(=O)C(NC(=O)c4cc(=O)c(O)c[nH]4)c4csc(N)n4)[C@H]3SC2)cc1 (stereo partly drawn) [A, reference compound] | 50 mg/L (≈ 79.4 µM) | 0.78 mg/L (≈ 1.24 µM) | 0.78 mg/L (≈ 1.24 µM) | 1.56 mg/L (≈ 2.48 µM) | 0.78 mg/L (≈ 1.24 µM) | 0.2 mg/L (≈ 0.318 µM) | 0.1 mg/L (≈ 0.159 µM) | 3.13 mg/L (≈ 4.97 µM) | 1.56 mg/L (≈ 2.48 µM) | 0.2 mg/L (≈ 0.318 µM) | 6.25 mg/L (≈ 9.93 µM) | 0.39 mg/L (≈ 0.619 µM) | 50 mg/L (≈ 79.4 µM) | 0.2 mg/L (≈ 0.318 µM) |
| C[n+]1cccc(SCC2=C(C(=O)[O-])N3C(=O)[C@@H](NC(=O)C(NC(=O)c4cc(=O)c(O)cn4O)c4csc(N)n4)[C@H]3SC2)c1 (stereo partly drawn) [Example 4, (6R,7R)7-[(RS)2-(2-Aminothiazol-4-yl)-2-(1,5-dihydroxy-4-pyridone-2-carboxamido)acetamido]-3-(1-methylpyridinium-3-yl)thiomethyl-ceph-3-em-4-carboxylate] | 0.39 mg/L (≈ 0.604 µM) | 3.13 mg/L (≈ 4.85 µM) | 3.13 mg/L (≈ 4.85 µM) | 12.5 mg/L (≈ 19.4 µM) | 0.39 mg/L (≈ 0.604 µM) | 0.1 mg/L (≈ 0.155 µM) | 0.1 mg/L (≈ 0.155 µM) | 3.13 mg/L (≈ 4.85 µM) | 0.2 mg/L (≈ 0.31 µM) | 0.1 mg/L (≈ 0.155 µM) | 0.2 mg/L (≈ 0.31 µM) | 6.25 mg/L (≈ 9.68 µM) | – | 0.2 mg/L (≈ 0.31 µM) |
| Nc1nc(C(NC(=O)c2cc(=O)c(O)cn2O)C(=O)N[C@@H]2C(=O)N3C(C(=O)[O-])=C(CSc4cc[n+](CCO)cc4)CS[C@H]23)cs1 (stereo partly drawn) [Example 5, (6R,7R)7-[(RS)2-(2-Aminothiazol-4-yl)-2-(1,5-dihydroxy-4-pyridone-2-carboxamido)acetamido]-3-[1-(2-hydoroxyethyl)pyridinium-4-yl]thiomethyl-ceph-3-em-4-carboxylate] | 0.78 mg/L (≈ 1.15 µM) | 3.13 mg/L (≈ 4.63 µM) | 1.56 mg/L (≈ 2.31 µM) | 3.13 mg/L (≈ 4.63 µM) | 0.39 mg/L (≈ 0.577 µM) | 0.05 mg/L (≈ 0.074 µM) | 0.05 mg/L (≈ 0.074 µM) | 1.56 mg/L (≈ 2.31 µM) | 0.1 mg/L (≈ 0.148 µM) | 0.05 mg/L (≈ 0.074 µM) | 0.1 mg/L (≈ 0.148 µM) | 0.78 mg/L (≈ 1.15 µM) | – | 0.2 mg/L (≈ 0.296 µM) |
| NC(=O)C[n+]1ccc(SCC2=C(C(=O)[O-])N3C(=O)[C@@H](NC(=O)C(NC(=O)c4cc(=O)c(O)cn4O)c4csc(N)n4)[C@H]3SC2)cc1 (stereo partly drawn) [Example 6, (6R,7R)7-[(RS)2-(2-Aminothiazol-4-yl)-2-(1,5-dihydroxy-4-pyridone-2-carboxamido)acetamido]-3-(1-carbamoylmethylpyridinium-4-yl)thiomethyl-ceph-3-em-4-carboxylate] | 0.78 mg/L (≈ 1.13 µM) | 3.13 mg/L (≈ 4.54 µM) | 1.56 mg/L (≈ 2.27 µM) | 3.13 mg/L (≈ 4.54 µM) | 0.2 mg/L (≈ 0.29 µM) | 0.05 mg/L (≈ 0.0726 µM) | 0.05 mg/L (≈ 0.0726 µM) | 1.56 mg/L (≈ 2.27 µM) | 0.2 mg/L (≈ 0.29 µM) | 0.1 mg/L (≈ 0.145 µM) | 0.1 mg/L (≈ 0.145 µM) | 1.56 mg/L (≈ 2.27 µM) | – | 0.2 mg/L (≈ 0.29 µM) |
| Nc1nc(C(NC(=O)c2cc(=O)c(O)cn2O)C(=O)N[C@@H]2C(=O)N3C(C(=O)[O-])=C(CSc4cc[n+](C5CC5)cc4)CS[C@H]23)cs1 (stereo partly drawn) [Example 8, (6R,7R)7-[(RS)2-(2-Aminothiazol-4-yl)-2-(1,5-dihydroxy-4-pyridone-2-carboxamido)acetamido]-3-(1-cycloproylpyridinium-4-yl)thiomethyl-ceph-3-em-4-carboxylate] | 1.56 mg/L (≈ 2.32 µM) | 1.56 mg/L (≈ 2.32 µM) | 1.56 mg/L (≈ 2.32 µM) | 3.13 mg/L (≈ 4.66 µM) | 0.2 mg/L (≈ 0.298 µM) | 0.1 mg/L (≈ 0.149 µM) | 0.05 mg/L (≈ 0.0744 µM) | 1.56 mg/L (≈ 2.32 µM) | 0.1 mg/L (≈ 0.149 µM) | 0.05 mg/L (≈ 0.0744 µM) | 0.2 mg/L (≈ 0.298 µM) | 0.78 mg/L (≈ 1.16 µM) | – | 0.2 mg/L (≈ 0.298 µM) |
